# Source: patent US8039505B2, “Compounds for modulating T-cells” (University of Utah Research Foundation, priority 2007, dated 2011)
# Tested on: cell cycle in zebrafish embryos
# Test: Cell cycle profiles in zebrafish embryos (propidium iodide, flow cytometry)
# Type: in vivo
# Conditions: zebrafish embryos incubated from 4 hours post fertilization overnight, DNA content by flow cytometry
# Description: FIG. 2 is a group of cell cycle profiles of active compounds tested in 24 hour zebrafish embryos. Specifically, embryos incubated with E3 fishwater (panel A), hydroxyurea (panel B), compound C4 (panel C), and compound C3 (panel D) are shown. After overnight incubation, single cell solution of embryos was prepared and incubated with propidium iodide. Samples were then subjected to flow cytometry to determine DNA content (X axis). Small arrowheads below the X-axis are placed beneath the diploid (G1) n=2 peak, and the tetraploid (G2/M) n=4 peaks. Cells between these two peaks are in S phase. Cells to the left of the G1 peak (sub G1 peak) have lost chromosomes (n<2), and are presumably dying (indicated as % debris in the right hand legend of each panel). Relative numbers of cells (Y-axis) in the different phases of the cell cycle are given on the right side of each panel.
# All of these compounds were tested for effects on the cell cycle in zebrafish embryos. Zebrafish embryos were incubated at 4 hours post fertilization with compounds or controls. After overnight incubation in compounds, single cell solution of embryos was prepared and incubated with propidium iodide. Samples were then subjected to flow cytometry to determine DNA content. […] Examples are depicted in FIG. 2.
# In FIG. 2, embryos incubated with (A) E3 fishwater, (B) hydroxyurea, (C) compound C4, and (D) C3 are shown. Diploid (G1, n=2) and tetraploid (G2/M, n=4) peaks are identified on the X-axis. Small arrowheads below the X-axis are placed beneath the dipoid (G1) n=2 peak, and the tetraploid (G2/M) n=4 peaks. Cells between these two peaks are in S phase. Cells to the left of the G1 peak (sub G1 peak) have lost chromosomes (n<2) and are presumably dying (indicated as % debris in the right hand legend of each panel). Relative numbers of cells (Y axis) in the different phases of the cell cycle are given on the right side of each panel.
compound,measurement,value
"NC(=O)NO [hydroxyurea, reference compound]",Effect on the cell cycle,S phase arrest
